Measured values reported in ChEMBL document CHEMBL1201862, “PubChem BioAssay data set” (2004).
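Method: 48-hour compound exposure of cells in 96-well plates, five concentrations, linear interpolation of endpoints. GI50: concentration for 50% inhibition of growth.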 Activity calls are given as the source filed them. No stated cut-off is given here; in the data, active = GI50 up to about 1.1 µM and inactive = higher.

How the values were obtained:
Experiment in all cases: NCI tumour cell line growth inhibition, 48 h
SN12C = system: SN12C
HL-60 = system: HL-60
NCI-H23 = system: NCI-H23
SR = system: SR
IGROV-1 = system: IGROV-1
UACC-62 = system: UACC-62
NCI-H460 = system: NCI-H460
SK-OV-3 = system: SK-OV-3
OVCAR-5 = system: OVCAR-5
HT-29 = system: HT-29
SNB-19 = system: SNB-19
Malme-3M = system: Malme-3M
HCC 2998 = system: HCC 2998
HCT-116 = system: HCT-116
HCT-15 = system: HCT-15
OVCAR-3 = system: OVCAR-3

Row | Structure (SMILES) | GI50 (SN12C) | GI50 (HL-60) | GI50 (NCI-H23) | GI50 (SR) | GI50 (IGROV-1) | GI50 (UACC-62) | GI50 (NCI-H460) | GI50 (SK-OV-3) | GI50 (OVCAR-5) | GI50 (HT-29) | GI50 (SNB-19) | GI50 (Malme-3M) | GI50 (HCC 2998) | GI50 (HCT-116) | GI50 (HCT-15) [µM] | GI50 (OVCAR-3)
1 | Fc1ccc(C2SCc3nc4ccccc4n32)cc1Cl (centres undefined) | 16.3 µM (inactive) | 13.1 µM (inactive) | 22.5 µM (inactive) | 27.2 µM (inactive) | > 10 µM (inactive) | 10.1 µM (inactive) | 29.2 µM (inactive) | 17.5 µM (inactive) | 15.4 µM (inactive) | 37.1 µM (inactive) | 34.4 µM (inactive) | 7.8 µM (inactive) | 16.3 µM (inactive) |  |  | 
2 | Cc1cc(C)nc(NS(=O)(=O)c2ccc(Nc3c4ccccc4nc4c(C(=O)NCCN(C)C)cccc34)cc2)n1 | 2.79 µM (inactive) | 1.49 µM (inactive) | 4.26 µM (inactive) | 0.302 µM (active) | 2.83 µM (inactive) | 3.55 µM (inactive) | 0.771 µM (active) |  | 12.8 µM (inactive) | 1.14 µM (inactive) | 1.85 µM (inactive) |  |  | 1.53 µM (inactive) | 5.66 | 
3 | O=C(N/C(=C\c1ccc(/C=C(\NC(=O)c2ccccc2)c2nc3ccccc3[nH]2)cc1)c1nc2ccccc2[nH]1)c1ccccc1 | > 100 µM (inactive) |  | > 100 µM (inactive) |  | > 100 µM (inactive) | > 100 µM (inactive) | > 100 µM (inactive) | > 100 µM (inactive) | > 100 µM (inactive) | > 100 µM (inactive) | > 100 µM (inactive) | > 100 µM (inactive) | > 100 µM (inactive) | > 100 µM (inactive) | > 100 | > 100 µM (inactive)
4 | COc1cc(CCc2ccncc2)cc(OC)c1OC | > 100 µM (inactive) | > 100 µM (inactive) | > 100 µM (inactive) |  | > 100 µM (inactive) | > 100 µM (inactive) | > 100 µM (inactive) |  | > 100 µM (inactive) | > 100 µM (inactive) | > 100 µM (inactive) | > 100 µM (inactive) |  | > 100 µM (inactive) | > 100 | > 100 µM (inactive)
5 | N/N=C(\CCN1CCCC1)CC(c1ccccc1)c1c(O)c2ccccc2oc1=O (centres undefined) | > 100 µM (inactive) | > 100 µM (inactive) | > 100 µM (inactive) | > 100 µM (inactive) | > 100 µM (inactive) | > 100 µM (inactive) | > 100 µM (inactive) | > 100 µM (inactive) | > 100 µM (inactive) | > 100 µM (inactive) | > 100 µM (inactive) | > 100 µM (inactive) | > 100 µM (inactive) | > 100 µM (inactive) | > 100 | > 100 µM (inactive)
6 | Cc1nc2ccccc2[s+]c1-c1cnc(NC#N)nc1C(=O)Nc1cccc(Cl)c1 | > 100 µM (inactive) |  | > 100 µM (inactive) | > 100 µM (inactive) | > 100 µM (inactive) | > 100 µM (inactive) | > 100 µM (inactive) | > 100 µM (inactive) | > 100 µM (inactive) | > 100 µM (inactive) | > 100 µM (inactive) | > 100 µM (inactive) | > 100 µM (inactive) | > 100 µM (inactive) | > 100 | > 100 µM (inactive)
7 | COc1cc2c(cc1OC)C1Cc3cc(OC)c(OC)cc3N1CC2 (centres undefined) | 75.2 µM (inactive) | 20.9 µM (inactive) | 29.5 µM (inactive) | 35.9 µM (inactive) | 52.6 µM (inactive) | 26.1 µM (inactive) | 40.2 µM (inactive) | 31.6 µM (inactive) | > 100 µM (inactive) | 40 µM (inactive) | 36.2 µM (inactive) | 20.9 µM (inactive) | 79.4 µM (inactive) | 31.1 µM (inactive) |  | 31.9 µM (inactive)
8 | N#CC(C(=O)C(=O)C(C#N)c1ccc(Br)cc1)c1ccc(Br)cc1 (centres undefined) | 14.5 µM (inactive) | 4.06 µM (inactive) | 3.91 µM (inactive) | 6.37 µM (inactive) | 15.6 µM (inactive) | 1.51 µM (inactive) | 16 µM (inactive) | 15.7 µM (inactive) | 18.2 µM (inactive) | 8.59 µM (inactive) | 17 µM (inactive) | 13.6 µM (inactive) | 12 µM (inactive) | 14.1 µM (inactive) | 13.3 | 9.38 µM (inactive)
9 | COC1CC(n2cc(F)c(N)nc2=O)OC1CO (centres undefined) | > 100 µM (inactive) | > 100 µM (inactive) | > 100 µM (inactive) |  |  |  | 94 µM (inactive) | > 100 µM (inactive) | > 100 µM (inactive) | > 100 µM (inactive) | > 100 µM (inactive) | > 100 µM (inactive) | 9.77 µM (inactive) |  | > 100 | > 100 µM (inactive)
10 | CN(C)CCC(/C=C/c1ccccc1)=N\Nc1ccc(Cl)c(Cl)c1 | 3.52 µM (inactive) | 2.7 µM (inactive) | 2.81 µM (inactive) | 2.09 µM (inactive) | 3.04 µM (inactive) | 2.55 µM (inactive) | 2.01 µM (inactive) | 4.53 µM (inactive) | 3.33 µM (inactive) | 2.24 µM (inactive) | 5.53 µM (inactive) | 14.2 µM (inactive) |  | 3.56 µM (inactive) | 3.6 | 4.27 µM (inactive)
11 | O=S(=O)(N/N=C/c1ccc(Cl)cc1Cl)c1ccccc1 | 27.4 µM (inactive) | 19.5 µM (inactive) | 69.7 µM (inactive) | 57 µM (inactive) | > 100 µM (inactive) | > 100 µM (inactive) |  | 91.8 µM (inactive) | > 100 µM (inactive) | 80.2 µM (inactive) |  | > 100 µM (inactive) | > 100 µM (inactive) | 49 µM (inactive) | > 100 | 91.4 µM (inactive)
12 | Cc1ccc(S(=O)(=O)OC2CS[S+]([O-])CC2OS(=O)(=O)c2ccc(C)cc2)cc1 (centres undefined) | 15.2 µM (inactive) | 6.01 µM (inactive) | 14.7 µM (inactive) | 1.83 µM (inactive) | 18 µM (inactive) | 15.3 µM (inactive) | 22.3 µM (inactive) | 21.7 µM (inactive) | 18.2 µM (inactive) | 29.6 µM (inactive) | 17.6 µM (inactive) | 14.6 µM (inactive) | 17.1 µM (inactive) | 13.9 µM (inactive) | 19 | 17.4 µM (inactive)
13 | NC(=O)c1csc(C2C=CC(CO)O2)n1 (centres undefined) | > 100 µM (inactive) | > 100 µM (inactive) | > 100 µM (inactive) |  | > 100 µM (inactive) | > 100 µM (inactive) | > 100 µM (inactive) | > 100 µM (inactive) | > 100 µM (inactive) | > 100 µM (inactive) | > 100 µM (inactive) | > 100 µM (inactive) | > 100 µM (inactive) | > 100 µM (inactive) | > 100 | > 10 µM (inactive)
14 | COC(=O)C1=C(O)c2cc(-c3ccccc3)c(-c3ccccc3)c(C#N)c2NC(=O)C1 | 47.9 µM (inactive) | 1.33 µM (inactive) | > 100 µM (inactive) | 2.96 µM (inactive) | 0.522 µM (active) | 3.97 µM (inactive) | 3.7 µM (inactive) |  |  | 5.81 µM (inactive) | 20.4 µM (inactive) |  | 34.9 µM (inactive) | 1.92 µM (inactive) | 1.55 | 77.8 µM (inactive)
15 | CSC(C1c2ccccc2N(c2ccc(C)cc2)C2=NC(=O)N(C)C(=O)C21Cl)S(=O)(=O)c1ccc(C)cc1 (centres undefined) | 21.7 µM (inactive) | 3.31 µM (inactive) | 22 µM (inactive) |  | 33.3 µM (inactive) | 21.6 µM (inactive) | 24 µM (inactive) | 42.1 µM (inactive) | 35.3 µM (inactive) | 26.2 µM (inactive) | 26.4 µM (inactive) | 17.2 µM (inactive) | 20.4 µM (inactive) | 13 µM (inactive) |  | 13.2 µM (inactive)
16 | Cc1cc2c(C)n[nH]c2c(C(=O)O)c1C | > 100 µM (inactive) | > 100 µM (inactive) | 85.7 µM (inactive) | > 100 µM (inactive) | > 100 µM (inactive) | > 100 µM (inactive) | > 100 µM (inactive) |  |  | > 100 µM (inactive) | > 100 µM (inactive) |  | > 100 µM (inactive) | > 100 µM (inactive) | > 100 | > 100 µM (inactive)
17 | CC(=O)c1c(O)c2c([nH]c1=O)CCCC2 | 22.5 µM (inactive) | 48.3 µM (inactive) | 41.1 µM (inactive) |  | 32.9 µM (inactive) | 18.1 µM (inactive) | 6.84 µM (inactive) | 25.6 µM (inactive) |  | 24.2 µM (inactive) | 18 µM (inactive) | > 100 µM (inactive) | 8.05 µM (inactive) |  | 48.1 | > 100 µM (inactive)
18 | C/C(CC(=O)Nc1ccccc1)=N\NC(N)=S |  | > 100 µM (inactive) | > 100 µM (inactive) |  | > 100 µM (inactive) | > 100 µM (inactive) | > 100 µM (inactive) | > 100 µM (inactive) | > 100 µM (inactive) | > 100 µM (inactive) |  | > 100 µM (inactive) | > 100 µM (inactive) | > 100 µM (inactive) |  | > 100 µM (inactive)
19 | CCCNCCCCC(NC(C)=O)C(=O)NCc1ccccc1 (centres undefined) | > 100 µM (inactive) |  | > 100 µM (inactive) |  | > 100 µM (inactive) | > 100 µM (inactive) | > 100 µM (inactive) | > 100 µM (inactive) | > 100 µM (inactive) | > 100 µM (inactive) | > 100 µM (inactive) | > 100 µM (inactive) | > 100 µM (inactive) | > 100 µM (inactive) | > 100 | > 100 µM (inactive)
20 | O=C(CC1(O)C(=O)Nc2c(Cl)ccc(Cl)c21)c1ccc(Cl)cc1 (centres undefined) | 18.2 µM (inactive) |  | 21.6 µM (inactive) |  | 23.9 µM (inactive) | 23.1 µM (inactive) | 23.4 µM (inactive) | 34.8 µM (inactive) | 35.2 µM (inactive) | 28.2 µM (inactive) | 67.8 µM (inactive) | 28.8 µM (inactive) | 24.5 µM (inactive) | 29.4 µM (inactive) | 31.4 | 23.3 µM (inactive)
